Consider six molecules from US20250319032A1, “PHARMACEUTICAL COMPOSITIONS OF RIBOCICLIB” (Novartis AG, priority 2024, published 2025).

Molecules are shown by their SMILES. Several values for one entry are separate records, joined by “and”; a condition that tells them apart may be missing. Equal entries are not always repeated.

The conditions of data set [1]: DSC, heating rate 10 ° C./min (with pinhole), cited from earlier work.
Data set [2] can be described thus: Drug product stability (film-coated tablets, tablet cores, blends, binary mixtures): content of DMP433 on storage. In kind it is physicochemical. Here is the method: The experiments were packed in aluminium bags.
Blends and compressed (compacted) mixtures of drug substance with the excipients crospovidone (Type A) and microcrystalline cellulose with standard and low nitrite content, and low substituted hydroxypropyl cellulose (L-HPC) from the drug product composition were subjected to accelerated storage conditions (40° C. and 50° C.) for periods up to 1 month. […]
Binary mixtures were prepared in the same portion as present in the formulation. The samples were packed in alu bags. […]
2.8. Sample solution-ribociclib FCT (KISQALI®) • 1. Grind and homogenize 10 tablets (IKA mill can be used). • 2. Into a 10 mL amber volumetric flask accurately about 180 mg of tablet powder (corresponding to 80 mg of ribociclib free base). • 3. Add solvent (50% MeOH) up to ⅔ of flask volume. Vortex the sample for 1 minute and shake on a mechanical shaker for at least 15 min. Fill to volume with solvent and use vortex for 1 minute. • 4. Filter through 0.2 μm PVDF or PTFE filter into a HPLC amber vial, discard the first 0.5 mL. […]
The content of DMP433 was analysed. […]

Data set [3] in a line: NDMA content in LEE011-B12 (IP) after ion exchange resin treatment (option 2 process). It counts as physicochemical. The note with it: (n.d.).
Data set [4] can be described thus: DMP433 (N-nitroso-ribociclib) content in ribociclib base (B10) and ribociclib succinate (B12, drug substance) batches and process experiments, LC-MS/MS or HPLC-HRMS. In kind it is physicochemical. The note with it: for DMP433 in LEE011-B12 (IP): B10 Raybow batch 805193A078. The text has this:
The method of testing for the presence and/or total amount of nitrosamines (such as the presence and/or total amount of N-nitroso-ribociclib in free or salt form) that is used in the methods of the invention may be any method which allows for the detection of nitrosamines in a composition. For example, the method may involve the Griess test described above. In such a method, the nitrosamines may be first denitrosated (e.g., by photolysis) to form a nitrite, which is then detected in the Griess test. Alternatively, the method may include high performance liquid chromatography (HPLC)- and/or gas chromatography (GC)-mass spectroscopy. An example of a method of testing for the presence and amount of nitrosamines (namely N-nitroso-ribociclib) is provided herein as Example 14. […]
2.7. […] Dissolve the substance using vortex and fill to volume with solvent (50% MeOH). • 3. Filter through 0.2 μm PVDF (polyvinylidene difluoride) or PTFE (polytetrafluoroethylene) filter into a HPLC amber vial, discard the first 0.5 ml.
A calibration curve for DMP433 is created, using calibration standard solutions L1-L6, and expressing the relationship between responses (peak areas) and standard concentrations (ng/ml). For L1, the average of 6 injections is used. Linear regression is weighed with 1/amount. […]

Data set [5] can be described thus: Validation of the HPLC-HRMS method for N-nitroso-ribociclib (precision, accuracy, linearity, LOQ, stability of standard and sample solutions). Here is the method: For the purpose of this validation only, the 100% target limit was set at 3.75 ppm (1500 ng NRR/400 mg ribociclib free base).
Six replicates of the “Sample solution” were prepared according to the procedure described above and tested on the same day. The results are expressed as ppm of NNR with regard to ribociclib free base (μg NNR/g ribociclib free base)
Two series of six replicates of the “Sample solutions” were prepared according to the procedure described above and tested by two different analysts, on two different days, using different LC/MS systems and different columns. The results are expressed as ppm of NNR with regard to ribociclib free base (μg NNR/g ribociclib free base)
Three replicates of calibration standard solutions L1 (c=0.5 ng/ml) and L6 (c=100 ng/ml) were prepared according to the procedure described above. Solutions were stored in the dark at room temperature (autosampler (AS) vials). After a period of time, the solutions were reanalyzed. The stability of standard solutions is evaluated by determining the relative difference between the responses […] The results are expressed as concentration in ng/ml, determined from calibration curve in each sequence (time point).
Three replicates of Sample solution were prepared according to AP. The replicates were analysed at t=0 h and after app. 24 hours and 48 hours of storage in vials AS at room temperature. The results are expressed as ppm of NNR wrt ribociclib free base. (μg NNR/g ribociclib free base).
In addition, FCT samples stored in flasks on the bench were filtered at defined time point and analysed. For 48 hours stability, composite samples (from Accuracy) were used.
Sample solutions were prepare according to the procedure described above using 10 mL, 25 mL and 50 mL flasks, three replicates for each volume. Results for 25 mL and 50 mL were compared to 10 mL volume that is prescribed in the AP. The results are expressed as ppm of NNR with regard to ribociclib free base (μg NNR/g ribociclib free base)
For ribociclib FCT, one composite sample preparation and three replicates of spiked composite sample solutions (prepared as described above) were prepared and tested on the same day.
The samples (drug substance or composite sample) were spiked at 0.5 ng/ml (0.0625 ppm), 30 ng/mlL (3.75 ppm) and 100 ng/ml (12.5 ppm) levels. Amount of NNR present in the unspiked sample was subtracted and recoveries were calculated as a ratio between amounts found and amounts added.
In each sequence, calibration solution L1 was injected six times as part of SST test (Repeatability of injections) and the average response was taken for the calculation of calibration curve. Linear regression was weighed with 1/amount.
Amount of NNR present in the unspiked sample was subtracted (see above) and RSD of corrected amounts calculated.

As to `CN(C)C(=O)c1cc2cnc(Nc3ccc(N4CCNCC4)cn3)nc2n1C1CCCC1.O=C(O)CCC(=O)O` [ribociclib succinate Form E], the Endothermic onset in data set [1] is 210.0 °C. For the same molecule, the Enthalpy in data set [1] (melting/decomposition, for information only) is on record as 194.8 J/g.

As to `CN(C)C(=O)c1cc2cnc(Nc3ccc(N4CCNCC4)cn3)nc2n1C1CCCC1.O=C(O)CCC(=O)O` [DS (B699003AA) (compact)], the DMP433 content came out at 0.7 ppm in data set [2] (T0, binary mixtures/blends/compacts, alu bags); 1.1 ppm in data set [2] (T 1 m (50° C./75% RH), alu bags); 0.9 ppm in data set [2] (T 2 w (40° C./75% RH), alu bags); 0.8 ppm in data set [2] (T 2 w (50° C./75% RH), alu bags).

Consider `CN(C)C(=O)c1cc2cnc(Nc3ccc(N4CCNCC4)cn3)nc2n1C1CCCC1.O=C(O)CCC(=O)O` [Ribociclib succinate], for which the “NDMA in LEE011-B12 (IP)” value in data set [3] (resin loading vs B10 20 w/w %), in data set [3] (resin loading vs B10 50 w/w %) and in data set [3] (resin loading vs B10 100 w/w %) was less than 100 ppb throughout. In data set [4] (3 washes vs 2 washes of isopropanol), the “depletion of DMP433 in the ribociclib succinate (B12) crystal by additional washing” value is given as “about 38%”. Also, the “DMP433 in LEE011-B12 (IP)” value in data set [4] (resin loading vs B10 20 w/w %, option 2 process) is recorded as 220 ppb; in data set [4] (resin loading vs B10 50 w/w %, wet cake), 211 ppb; in data set [4] (resin loading vs B10 100 w/w %, wet cake), 238 ppb.

Turning to `CN(C)C(=O)c1cc2cnc(Nc3ccc(N4CCNCC4)cn3)nc2n1C1CCCC1.O=C(O)CCC(=O)O` [DS (B699003AA) compact], the DMP433 content in data set [2] (binary studies of drug substance with excipients, T0) is 0.7 ppm; in data set [2] (binary studies, 40° C., T 2 Weeks), 0.9 ppm; in data set [2] (binary studies, 50° C., T 1 Month), 1.1 ppm; in data set [2] (binary studies, 50° C., T 2 Weeks), 0.8 ppm.

Consider `CN(C)C(=O)c1cc2cnc(Nc3ccc(N4CCNCC4)cn3)nc2n1C1CCCC1.O=C(O)CCC(=O)O` [ribociclib succinate drug substance], for which the “NNR Average (ppm), Ruggedness” value in data set [5] (n = 6) came to 0.241 ppm. Moreover, in data set [5] (n = 12, intermediate precision), the “NNR Total average (ppm)” value stood at 0.240 ppm. Also, the “NNR (ppm), Ruggedness, single replicate” value in data set [5] (second analyst, day, LC/MS system and column, replicates R1-R6) was 0.287 ppm and 0.243 ppm and 0.244 ppm and 0.176 ppm and 0.262 ppm and 0.235 ppm.

Take `CN(C)C(=O)c1cc2cnc(Nc3ccc(N4CCNCC4)cn3)nc2n1C1CCCC1.O=C(O)CCC(=O)O` [Ribociclib Succinate Drug Substance]: the “NNR Amount found (ppm)” value in data set [5] (level S0, unspiked) was 0.3328 ppm and 0.3246 ppm and 0.3256 ppm; in data set [5] (level S1, spiked 0.0625 ppm), 0.3754 ppm and 0.3778 ppm and 0.3796 ppm and 0.3774 ppm and 0.3781 ppm and 0.3824 ppm; in data set [5] (level S2, spiked 3.75 ppm) it was 3.5823 ppm and 3.7302 ppm and 3.8822 ppm; in data set [5] (level S3, spiked 12.5 ppm), 11.0295 ppm and 11.6248 ppm and 11.8859 ppm.
